Patent US20250255867A1 (Kadmon Corporation, LLC, priority 2022, published 2025)

Experiments:
[1] = Example 2: safety (AE, SAE, relative dose intensity); type: in vivo
Description: All responses were assessed by the study site investigators.

[2] = tested on: subjects with BOS; assay: Example 3: FEV1 evaluation in BOS; type: in vivo, human
Description: Patients with BOS were identified as: 1) % predicted forced expiratory volume in 1 second (% FEV1) of £79% at enrollment, and 2) clinician attribution of lung disease due to cGVHD.
In Example 1, lung function assessments were conducted at baseline and on Day 1 of each cycle for patients with suspected of known lung involvement. In Example 2, lung function assessments were conducted at baseline and at the time of response assessments: Day 1 of cycles 2-5 and then on Day 1 of every other cycle thereafter.

CC(C)NC(=O)COc1cccc(-c2nc(Nc3ccc4[nH]ncc4c3)c3ccccc3n2)c1 [Belumosudil, 2-{3-[4-(1H-indazol-5-ylamino)-2-quinazolinyl]phenoxy}-N-(propan-2-yl) acetamide]
Muscle spasms, all grades ([1]; 200 mg twice daily (n = 66)): 13 (20) n (%)
Nausea, all grades ([1]; 200 mg twice daily (n = 66)): 18 (27) n (%)
Peripheral edema, all grades ([1]; 200 mg twice daily (n = 66)): 13 (20) n (%)
Pneumonia, Grade ≥3 ([1]; 200 mg twice daily (n = 66)): 4 (6) n (%)
SAEs ([1]; 200 mg twice daily (n = 66)): 23 (35) n (%)
Transaminases increased ([1]; 200 mg twice daily (n = 66)): 1 (2) n (%)
Upper respiratory tract infection, all grades ([1]; 200 mg twice daily (n = 66)): 18 (27) n (%)
Vomiting, all grades ([1]; 200 mg twice daily (n = 66)): 10 (15) n (%)
ALT increased ([1]; Total (N = 132)): 11 (8) n (%)
AST increased ([1]; Total (N = 132)): 13 (10) n (%)
Any AE ([1]; Total (N = 132)): 131 (99) n (%)
Bilirubin conjugated increased ([1]; Total (N = 132)): 1 (1) n (%)
Blood alkaline phosphatase increased ([1]; Total (N = 132)): 10 (8) n (%)
Cough, all grades ([1]; Total (N = 132)): 37 (28) n (%)
Diarrhea, all grades ([1]; Total (N = 132)): 44 (33) n (%)
Drug-related AEs ([1]; Total (N = 132)): 89 (67) n (%)
Drug-related SAEs ([1]; Total (N = 132)): 7 (5) n (%)
Dyspnea, all grades ([1]; Total (N = 132)): 33 (25) n (%)
Fatigue, all grades ([1]; Total (N = 132)): 50 (38) n (%)
GGT increased ([1]; Total (N = 132)): 16 (12) n (%)
Grade ≥3 AEs ([1]; Total (N = 132)): 71 (54) n (%)
Headache, all grades ([1]; Total (N = 132)): 31 (24) n (%)
Hyperglycemia, Grade ≥3 ([1]; Total (N = 132)): 6 (5) n (%)
Hypertension, Grade ≥3 ([1]; Total (N = 132)): 8 (6) n (%)
Hypoalbuminemia ([1]; Total (N = 132)): 4 (3) n (%)
LFT increased ([1]; Total (N = 132)): 1 (1) n (%)
Liver-related AEs ([1]; Total (N = 132)): 31 (24) n (%)
Muscle spasms, all grades ([1]; Total (N = 132)): 26 (20) n (%)
Nausea, all grades ([1]; Total (N = 132)): 41 (31) n (%)
Peripheral edema, all grades ([1]; Total (N = 132)): 30 (23) n (%)
Pneumonia, Grade ≥3 ([1]; Total (N = 132)): 10 (8) n (%)
SAEs ([1]; Total (N = 132)): 50 (38) n (%)
Transaminases increased ([1]; Total (N = 132)): 2 (2) n (%)
Upper respiratory tract infection, all grades ([1]; Total (N = 132)): 35 (27) n (%)
Vomiting, all grades ([1]; Total (N = 132)): 28 (21) n (%)
Deaths ([1]; Total (N = 132), six died during LTFU (>28 days after last dose)): 14 (11) n (%)
Discontinued because of overall AEs ([1]; in vivo): 21%
Discontinued because of possible drug-related AEs ([1]; in vivo): 12%
Grade 3 or 4 hyperglycemia ([1]; in vivo): 5%
Grade 3 or 4 hypertension ([1]; in vivo): 6%
Grade 3 or 4 pneumonia ([1]; in vivo): 8%
Grade ≥3 anemia ([1]; in vivo): 3%
Grade ≥3 cytopenias ([1]; in vivo): < 4%
Grade ≥3 neutropenia ([1]; in vivo): 2%
Grade ≥3 thrombocytopenia ([1]; in vivo): 2%
Increased GGT (liver-related AE) ([1]; in vivo): 12%
Median RDI ([1]; in vivo): 99.7%
SAE pneumonia, subjects ([1]; in vivo): 7%
Subjects who died during the study ([1]; in vivo): Fourteen
Subjects who received an RDI >95% ([1]; in vivo): Eighty-one
Subjects with >1 SAE ([1]; in vivo): Thirty eight
Subjects with increased liver function tests (LFTs) ([1]; in vivo): Twenty-four
Cases of Epstein-Barr viremia that required treatment ([1]; unrelated to belumosudil): 1 case
Cases of cytomegalovirus (CMV) reactivation ([1]; unrelated to belumosudil): 1 case
Cases of cytomegalovirus (CMV) reactivation ([1]; unrelated to belumosudil, listed as belumosudil): one
Subjects with ^3 5% absolute improvement in % FEV1 from baseline ([2]; 59 subjects): 39%
Subjects with ^3 10% absolute improvement in % FEV1 from baseline ([2]; 59 subjects): 22%
Subjects with at least a 200 mL improvement in FEV1 from baseline ([2]; Example 2 subjects only): 36%
Subjects with ^3 5% absolute improvement in % FEV1 ([2]; baseline NIH lung score 1): 57%
Subjects with ^3 5% absolute improvement in % FEV1 ([2]; baseline NIH lung score 2): 13%
Subjects with ^3 5% absolute improvement in % FEV1 ([2]; baseline NIH lung score 3): 50%
Subjects with at least a 200 mL improvement in FEV1 ([2]; baseline lung score 1): 41%
Subjects with at least a 200 mL improvement in FEV1 ([2]; baseline lung score 2): 31%
Subjects with 200 mL improvement in FEV1 ([2]; non-responders): 19%
Subjects with ^3 5% absolute improvement in % FEV1 ([2]; non-responders): 18%
Subjects with 200 mL improvement in FEV1 ([2]; responders by NIH criteria): 66%
Subjects with ^3 5% absolute improvement in % FEV1 ([2]; responders by NIH criteria): 84%
